Assay results: US11219588B2, “Use of polyamines in compositions and methods for inducing or promoting skin darkening and regulating melanogenesis” (Agency for Science, Technology and Research, priority 2016, dated 2022)
Where two headings read alike, the source gives them in different places.

Legend:
[1] = system: primary human melanocytes; conditions: 3 and 6 days after incubation with putrescine
Text: FIG. 8 is a dot plot showing the viability of cells untreated, treated for 3 days, or treated for 6 days with putrescine.

[2] = system: melanogenesis related proteins (TYR, TYRP1 and DCT) in NHEM-aLP cells; conditions: putrescine treated vs control, western blotting
Method: Human epidermal melanocytes from adult donor (Hema-LP) were purchased from Life Technologies. The cells were grown in 254 media with HMGS-2 and calcium chloride supplements in a humidified incubator containing 5% CO2 according to the manufacturer's instruction. For putrescine treatments, the cells were plated at an approximate density of 20,000/cm^2 the day before. Fresh media was added along with the respective drugs reconstituted in water (putrescine was purchased from Sigma Aldrich) to the cell cultures on day 0 and day 3 of experiment. The cells were lysed in RIPA buffer, and concentration of the cell lysate was determined by Pierce BCA Protein Assay Kit (Thermo Scientific). […] The membrane was blocked with 5% skim milk in TBST (0.1% Tween-20 (Sigma-Aldrich) in 1×TBS (0.1 M NaCl, 0.1 M Tris pH 7.4 in ddH2O; purchased from Biopolis Shared Facility) and incubated overnight at 4° C. with respective primary antibodies against TYR (sc-7833), TYRP1 (sc-10443), DCT (sc-10451) from Santa Cruz Biotechnology Inc and RPLP0 (AB126480) from Abcam at a dilution of 1:1000 in blocking buffer. The samples were then incubated with horseradish peroxidase-labeled anti-rabbit, or anti-goat IgG (Santa Cruz Biotechnology, Inc) at a dilution 1:5000 for 1 hour at 4° C. and immunoreactive bands were detected with enhanced chemiluminescent substrate (Thermo Fisher Scientific).

[3] = system: primary human melanocytes; conditions: long term culture with putrescine
[4] = system: ATP13A3, SLC11A8 and Caveolin-1 in melanocytes; conditions: on addition of putrescine
NHEM-aLP cells [5] = experiment: MTS proliferation and cytotoxicity colorimetric assay
[6] = system: melanogenesis-related genes (TYR, TYRP1, DCT and PMEL) in NHEM-aLP cells; conditions: 2 mM putrescine for 6 days, relative to RPLP0
Method: Human epidermal melanocytes from adult donor (Hema-LP) were purchased from Life Technologies. The cells were grown in 254 media with HMGS-2 and calcium chloride supplements in a humidified incubator containing 5% CO2 according to the manufacturer's instruction. For putrescine treatments, the cells were plated at an approximate density of 20,000/cm^2 the day before. Fresh media was added along with the respective drugs reconstituted in water (putrescine was purchased from Sigma Aldrich) to the cell cultures on day 0 and day 3 of experiment.
Total RNA was extracted from the cells using RNAeasy (Qiagen) according to manufacturer's instructions. 500 ng of total RNA was converted to complimentary DNA using RevertAid First Strand cDNA synthesis kit (Thermo Scientifc). It was diluted 1:25, and 4 ul of the diluted mixture was used as a template with specific primers using Luminaris Colour HiGreen Hi ROX master mix (Thermo Fisher Scientific) for qRT-PCR on an ABI PRISM 7900 sequence detection system. […] Expression levels detected by qPCR were normalized with ribosomal protein LP0 or L13A.

[7] = system: human abdominal skin biopsies
Text: The skin was them imaged, followed by sectioning and staining with Fontana Mason stain which stains for melanin.

NHEM-aLP cells [8] = experiment: Putrescine/spermidine treatment of melanocytes and melanin quantification; type: cell-based, human
Method: 2×10^5 cells were dissolved in 1 M sodium hydroxide solution and incubated at 80° C. for 2 hours. The absorbance of the cell lysates was measured at 405 nm in a microplate well reader.
2×10^5 cells were dissolved in 1M sodium hydroxide solution and incubated at 80° C. for 2 hours. The absorbance of the cell lysates was measured at 405 nm in a microplate well reader.

[9] = system: reconstructed epidermis (keratinocytes, melanocytes and fibroblasts); conditions: 2 mM Putrescine for 14 days, preliminary experiment
Method: The reconstructed epidermis (Denova Sciences) has normal human keratinocytes three dimensionally cultured at an air-liquid interface in a chemically defined medium, in the presence of melanocytes and fibroblasts. They were treated with 2 mM Putrescine for 14 days.

[10] = system: cultured human melanocytes; conditions: melanocytes cultured with putrescine
Method: To confirm that cultured human melanocytes do take up putrescine, the polycationic aliphatic amine content was measured in melanocytes cultured with and without putrescine.

Human melanocytes [11] = experiment: MTT cell viability assay, melanocytes; conditions: increasing concentrations
Method: (§1) Human keratinocytes and melanocytes were cultured in the presence of increasing concentrations of a polycationic aliphatic amine transport inhibitor, trimer44NMe, or DFMO, and the cell viability was determined by an MTT assay.

Human keratinocytes = experiment: MTT cell viability assay, keratinocytes; conditions: increasing concentrations (trimer44NMe up to 5 μM)
Method: as §1

[12] = system: co-cultured human keratinocytes and melanocytes; experiment: UV induced pigmentation in co-culture of melanocytes and keratinocytes; type: cell-based; conditions: co-culture under UV induction
Text: On UV induction, keratinocytes signal to melanocytes to increase melanogenesis. This can be modeled through co-culture of human melanocytes and keratinocytes under UV induction.

[13] = system: human primary melanocytes; experiment: Melanin content of melanocytes, putrescine with and without transport inhibitor; type: cell-based; conditions: putrescine plus trimer44NMe vs putrescine alone
Method: To confirm that import of putrescine is required for the pigmentation phenotype observed in melanocytes, human primary melanocytes were cultured with putrescine with and without a polycationic aliphatic amine transport inhibitor (trimer44NMe).

Human melanocytes [14] = system: Human melanocytes
Method: as §1

SMILES: NCCCCN [putrescine, butane-1,4-diamine]
- cell viability [1]: no decrease in viability
- protein levels of TYR, TYRP1 and DCT [2]: increased drastically
- melanin content on long term culture [3]: sustained increase in melanin content
- protein level of Caveolin-1 [4]: decreases
- protein levels of polyamine transporters ATP13A3 and SLC11A8 [4]: increase
- maximum dose up to which NHEM-aLP can survive (NHEM-aLP cells [5]; 3 days treatment, MTS): 2 mM
- effect on proliferation (NHEM-aLP cells [5]; doses between 0.5 mM and 2 mM, 3 days): mild proliferative effect
- mRNA expression levels of TYR, TYRP1, DCT and PMEL [6]: significant increase
- darkening of the skin ([7]; incubated ten days): promoted darkening of the skin
- melanin stain within melanocytes and neighboring keratinocytes ([7]; ten days, Fontana Mason stain): increase in melanin stain
- cell morphology / dendrites (NHEM-aLP cells [8]; 2 mM putrescine, day 6): larger and flatter and displayed an increased number of dendrites
- visual darkening of the melanocytes (NHEM-aLP cells [8]; 2 mM putrescine, every 3 days for 6 days): drastic darkening effect
- increase in melanin content vs control (NHEM-aLP cells [8]; 2 mM putrescine, every 3 days for 6 days, NHEM-aLP cells): 1.5-2 fold
- pigmentation levels compared to control [9]: increase in pigmentation levels
- intracellular levels of putrescine vs non-treated cells [10]: dramatically higher
- intracellular levels of spermine [10]: decrease in the levels of spermine

SMILES: NCCCCNCCCN [spermidine, N′-(3-aminopropyl)butane-1,4-diamine]
- melanin content of the cells, dose dependence (NHEM-aLP cells [8]; 0.05 mM and 0.5 mM spermidine, every 3 days for 6 days): dose dependant increase
- maximum fold change in melanin content (NHEM-aLP cells [8]; 0.5 mM spermidine, every 3 days for 6 days, NHEM-aLP cells): 1.5-2 fold
- concentration for similar melanin increase relative to putrescine (2 mM) (NHEM-aLP cells [8]; spermidine 0.5 mM vs putrescine 2 mM): 4 times lower

SMILES: NCCCC(N)(C(=O)O)C(F)F (racemic) [DFMO, (RS)-2,5-diamino-2-(difluoromethyl)pentanoic acid]
- sensitivity of melanocyte viability (Human melanocytes [11]): comparatively insensitive
- sensitivity of keratinocyte viability (Human keratinocytes): sensitive
- UV induced pigmentation (melanin-containing keratinocytes) [12]: inhibits UV induced pigmentation

SMILES: CNCCCCNCCCCNCc1cc(CNCCCCNCCCCNC)cc(CNCCCCNCCCCNC)c1 [trimer44NMe]
- effect on putrescine induced pigmentation (melanin content) [13]: blocked the ability of putrescine to promote pigmentation
- sensitivity of melanocyte viability (Human melanocytes [14]): highly sensitive
